In the NIST ThermoML archive (doi:10.1016/j.jct.2015.01.007):

Test: molar heat capacity at constant pressure
Conditions: 101.33 kPa

O=P([O-])([O-])[O-].[Fe+2].[Li+] [iron(II) lithium phosphate]
Conditions | molar heat capacity at constant pressure [J/K/mol]
2.03 K, Crystal 2, relaxation calorimetry | 0.0162
2.2 K, Crystal 2, relaxation calorimetry | 0.0187
2.38 K, Crystal 2, relaxation calorimetry | 0.0224
2.58 K, Crystal 2, relaxation calorimetry | 0.0243
2.8 K, Crystal 2, relaxation calorimetry | 0.0271
3.04 K, Crystal 2, relaxation calorimetry | 0.0309
3.29 K, Crystal 2, relaxation calorimetry | 0.0325
3.56 K, Crystal 2, relaxation calorimetry | 0.0401
3.86 K, Crystal 2, relaxation calorimetry | 0.048
4.19 K, Crystal 2, relaxation calorimetry | 0.0562
4.54 K, Crystal 2, relaxation calorimetry | 0.059
4.92 K, Crystal 2, relaxation calorimetry | 0.0709
5 K, Crystal 2, relaxation calorimetry | 0.0481
5.33 K, Crystal 2, relaxation calorimetry | 0.0742
5.78 K, Crystal 2, relaxation calorimetry | 0.0903
6.26 K, Crystal 2, relaxation calorimetry | 0.101
6.78 K, Crystal 2, relaxation calorimetry | 0.12
7.35 K, Crystal 2, relaxation calorimetry | 0.138
7.97 K, Crystal 2, relaxation calorimetry | 0.173
8.64 K, Crystal 2, relaxation calorimetry | 0.22
9.36 K, Crystal 2, relaxation calorimetry | 0.276
10 K, Crystal 2, relaxation calorimetry | 0.3419
10.14 K, Crystal 2, relaxation calorimetry | 0.364
10.23 K, Crystal 2, relaxation calorimetry | 0.46
10.75 K, Crystal 2, relaxation calorimetry | 0.535
11.26 K, Crystal 2, relaxation calorimetry | 0.615
11.77 K, Crystal 2, relaxation calorimetry | 0.706
12.28 K, Crystal 2, relaxation calorimetry | 0.808
12.8 K, Crystal 2, relaxation calorimetry | 0.917
13.31 K, Crystal 2, relaxation calorimetry | 1.038
13.83 K, Crystal 2, relaxation calorimetry | 1.171
14.34 K, Crystal 2, relaxation calorimetry | 1.314
14.85 K, Crystal 2, relaxation calorimetry | 1.467
15 K, Crystal 2, relaxation calorimetry | 1.514
15.36 K, Crystal 2, relaxation calorimetry | 1.631
15.88 K, Crystal 2, relaxation calorimetry | 1.797
16.39 K, Crystal 2, relaxation calorimetry | 1.977
16.9 K, Crystal 2, relaxation calorimetry | 2.169
17.41 K, Crystal 2, relaxation calorimetry | 2.363
17.93 K, Crystal 2, relaxation calorimetry | 2.571
18.44 K, Crystal 2, relaxation calorimetry | 2.79
18.95 K, Crystal 2, relaxation calorimetry | 3.015
19.47 K, Crystal 2, relaxation calorimetry | 3.249
19.98 K, Crystal 2, relaxation calorimetry | 3.484
20 K, Crystal 2, relaxation calorimetry | 3.498
20.49 K, Crystal 2, relaxation calorimetry | 3.75
21.01 K, Crystal 2, relaxation calorimetry | 3.99
21.51 K, Crystal 2, relaxation calorimetry | 4.26
22.03 K, Crystal 2, relaxation calorimetry | 4.55
22.54 K, Crystal 2, relaxation calorimetry | 4.83
23.05 K, Crystal 2, relaxation calorimetry | 5.13
23.56 K, Crystal 2, relaxation calorimetry | 5.43
24.08 K, Crystal 2, relaxation calorimetry | 5.74
24.59 K, Crystal 2, relaxation calorimetry | 6.06
25 K, Crystal 2, relaxation calorimetry | 6.334
25.1 K, Crystal 2, relaxation calorimetry | 6.4
25.61 K, Crystal 2, relaxation calorimetry | 6.75
26.13 K, Crystal 2, relaxation calorimetry | 7.09
26.64 K, Crystal 2, relaxation calorimetry | 7.45
27.15 K, Crystal 2, relaxation calorimetry | 7.84
27.67 K, Crystal 2, relaxation calorimetry | 8.22
28.18 K, Crystal 2, relaxation calorimetry | 8.63
28.69 K, Crystal 2, relaxation calorimetry | 9.04
29.2 K, Crystal 2, relaxation calorimetry | 9.47
29.71 K, Crystal 2, relaxation calorimetry | 9.92
30 K, Crystal 2, relaxation calorimetry | 10.17
30.22 K, Crystal 2, relaxation calorimetry | 10.36
30.73 K, Crystal 2, relaxation calorimetry | 10.82
31.24 K, Crystal 2, relaxation calorimetry | 11.31
31.76 K, Crystal 2, relaxation calorimetry | 11.78
32.27 K, Crystal 2, relaxation calorimetry | 12.28
32.78 K, Crystal 2, relaxation calorimetry | 12.78
33.29 K, Crystal 2, relaxation calorimetry | 13.28
33.8 K, Crystal 2, relaxation calorimetry | 13.81
34.31 K, Crystal 2, relaxation calorimetry | 14.35
34.82 K, Crystal 2, relaxation calorimetry | 14.9
35 K, Crystal 2, relaxation calorimetry | 15.09
35.34 K, Crystal 2, relaxation calorimetry | 15.46
35.85 K, Crystal 2, relaxation calorimetry | 16.03
37.02 K, Crystal 2, relaxation calorimetry | 17.18
38.89 K, Crystal 2, relaxation calorimetry | 19.19
40 K, Crystal 2, relaxation calorimetry | 20.69
40.75 K, Crystal 2, relaxation calorimetry | 21.8
42 K, Crystal 2, relaxation calorimetry | 23.73
42.62 K, Crystal 2, relaxation calorimetry | 24.74
44.48 K, Crystal 2, relaxation calorimetry | 28.1
45 K, Crystal 2, relaxation calorimetry | 29.13
45.5 K, Crystal 2, relaxation calorimetry | 30.18
45.72 K, Crystal 2, relaxation calorimetry | 30.67
45.92 K, Crystal 2, relaxation calorimetry | 31.15
46 K, Crystal 2, relaxation calorimetry | 31.31
46.14 K, Crystal 2, relaxation calorimetry | 31.65
46.34 K, Crystal 2, relaxation calorimetry | 32.17
46.55 K, Crystal 2, relaxation calorimetry | 32.68
46.75 K, Crystal 2, relaxation calorimetry | 33.24
46.97 K, Crystal 2, relaxation calorimetry | 33.77
47 K, Crystal 2, relaxation calorimetry | 33.89
47.16 K, Crystal 2, relaxation calorimetry | 34.33
47.38 K, Crystal 2, relaxation calorimetry | 34.9
47.58 K, Crystal 2, relaxation calorimetry | 35.53
47.8 K, Crystal 2, relaxation calorimetry | 36.14
47.99 K, Crystal 2, relaxation calorimetry | 36.79
48 K, Crystal 2, relaxation calorimetry | 36.77
48.2 K, Crystal 2, relaxation calorimetry | 37.43
48.4 K, Crystal 2, relaxation calorimetry | 38.11
48.62 K, Crystal 2, relaxation calorimetry | 38.7
48.82 K, Crystal 2, relaxation calorimetry | 39.3
49 K, Crystal 2, relaxation calorimetry | 39.73
49.03 K, Crystal 2, relaxation calorimetry | 39.72
49.22 K, Crystal 2, relaxation calorimetry | 40.03
49.24 K, Crystal 1, combination of DSC and relaxation calorimetry | 39.99
49.24 K, Crystal 2, relaxation calorimetry | 39.99
49.44 K, Crystal 1, relaxation calorimetry | 39.73
49.64 K, Crystal 1, relaxation calorimetry | 38.83
49.85 K, Crystal 1, relaxation calorimetry | 36.64
50 K, Crystal 1, combination of DSC and relaxation calorimetry | 34.52
50.05 K, Crystal 1, relaxation calorimetry | 33.84
50.27 K, Crystal 1, relaxation calorimetry | 30.69
50.47 K, Crystal 1, relaxation calorimetry | 28.52
50.69 K, Crystal 1, relaxation calorimetry | 26.66
50.89 K, Crystal 1, relaxation calorimetry | 25.59
51 K, Crystal 1, combination of DSC and relaxation calorimetry | 25.15
51.08 K, Crystal 1, relaxation calorimetry | 24.86
51.29 K, Crystal 1, relaxation calorimetry | 24.3
51.5 K, Crystal 1, relaxation calorimetry | 23.89
51.7 K, Crystal 1, relaxation calorimetry | 23.58
51.9 K, Crystal 1, relaxation calorimetry | 23.36
52 K, Crystal 1, combination of DSC and relaxation calorimetry | 23.25
52.12 K, Crystal 1, relaxation calorimetry | 23.13
52.32 K, Crystal 1, relaxation calorimetry | 22.99
52.53 K, Crystal 1, relaxation calorimetry | 22.88
52.72 K, Crystal 1, relaxation calorimetry | 22.83
52.94 K, Crystal 1, relaxation calorimetry | 22.74
53 K, Crystal 1, combination of DSC and relaxation calorimetry | 22.72
53.14 K, Crystal 1, relaxation calorimetry | 22.69
53.35 K, Crystal 1, relaxation calorimetry | 22.66
53.55 K, Crystal 1, relaxation calorimetry | 22.66
53.77 K, Crystal 1, relaxation calorimetry | 22.66
53.96 K, Crystal 1, relaxation calorimetry | 22.66
54 K, Crystal 1, combination of DSC and relaxation calorimetry | 22.66
54.18 K, Crystal 1, relaxation calorimetry | 22.69
54.38 K, Crystal 1, relaxation calorimetry | 22.68
54.59 K, Crystal 1, relaxation calorimetry | 22.73
54.79 K, Crystal 1, relaxation calorimetry | 22.77
55 K, Crystal 1, combination of DSC and relaxation calorimetry | 22.82
55 K, Crystal 1, relaxation calorimetry | 22.82
55.2 K, Crystal 1, relaxation calorimetry | 22.85
55.41 K, Crystal 1, relaxation calorimetry | 22.91
55.62 K, Crystal 1, relaxation calorimetry | 22.95
56.61 K, Crystal 1, relaxation calorimetry | 23.28
57.71 K, Crystal 1, relaxation calorimetry | 23.69
58.79 K, Crystal 1, relaxation calorimetry | 24.17
59.89 K, Crystal 1, relaxation calorimetry | 24.67
60 K, Crystal 1, combination of DSC and relaxation calorimetry | 24.71
60.97 K, Crystal 1, relaxation calorimetry | 25.19
62.06 K, Crystal 1, relaxation calorimetry | 25.78
63.15 K, Crystal 1, relaxation calorimetry | 26.36
64.24 K, Crystal 1, relaxation calorimetry | 26.97
65 K, Crystal 1, combination of DSC and relaxation calorimetry | 27.41
65.33 K, Crystal 1, relaxation calorimetry | 27.59
